# In article PMC3259734 (ACS medicinal chemistry letters, 2011):
# “And” between values parts separate entries of the source, which are not always exact repeats. Equal entries are not always repeated.
# Key:
# M. tuberculosis H37Rv [1] = assay: DHNA rescue of growth of treated M. tuberculosis; format: cell-based, Mycobacterium tuberculosis; details: DHNA 100 μg/ml added to the media; compound at 2xMIC
# Cytotoxicity assays = format: cell-based
# MenB [2] = target: T1, MenB (Mycobacterium tuberculosis, UniProt P9WNP5); assay: biochemical; details: for ability to inhibit MenB: analogues still able to undergo elimination
# T1 sequence (P9WNP5 whole entry): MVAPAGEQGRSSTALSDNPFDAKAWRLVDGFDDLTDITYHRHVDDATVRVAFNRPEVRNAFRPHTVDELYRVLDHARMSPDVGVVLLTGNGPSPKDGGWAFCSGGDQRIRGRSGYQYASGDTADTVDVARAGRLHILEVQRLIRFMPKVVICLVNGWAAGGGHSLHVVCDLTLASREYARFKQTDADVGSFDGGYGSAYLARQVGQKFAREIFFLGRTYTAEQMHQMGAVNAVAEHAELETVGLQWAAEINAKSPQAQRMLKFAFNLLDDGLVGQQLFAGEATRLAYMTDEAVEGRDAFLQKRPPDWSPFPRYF
# MenB [3] = target: T1, MenB; assay: Steady state kinetics of MenB inhibition; format: biochemical; details: steady state kinetic methods
# [4] = system: nonreplicating M. tuberculosis (NRP-MTB); details: against NRP-MTB; cited from earlier work
# MenE = assay: Direct MenE inhibition assay; format: biochemical; details: MenE 100 nM; data not shown
# M. tuberculosis H37Rv [5] = assay: Antibacterial activity; format: cell-based, Mycobacterium tuberculosis; details: in words
smiles,measurement,setting,value
COC(=O)/C=C/C(=O)c1ccc(F)cc1 [Compound 2b],rescue of growth by DHNA,M. tuberculosis H37Rv [1],rescue the growth
same,selectivity ratio,Cytotoxicity assays,> 20
CC(C)(COP(=O)(O)OP(=O)(O)OC[C@H]1O[C@@H](n2cnc3c(N)ncnc32)[C@H](O)[C@@H]1OP(=O)(O)O)[C@@H](O)C(=O)NCCC(=O)NCCSCCC(=O)c1ccc(Cl)cc1Cl [Compound 18],concentration up to which MenB was not (significantly) inhibited,MenB [2],> 400 µM
"COC(=O)/C=C/C(=O)c1ccc(Cl)cc1 [Compound 3b, 4-Oxo-4-chlorophenylbutenoyl methyl ester]",rescue of growth by DHNA,M. tuberculosis H37Rv [1],rescue the growth
same,selectivity ratio,Cytotoxicity assays,> 20
CC(C)(COP(=O)(O)OP(=O)(O)OC[C@H]1O[C@@H](n2cnc3c(N)ncnc32)[C@H](O)[C@@H]1OP(=O)(O)O)[C@@H](O)C(=O)NCCC(=O)NCCSC(CC(=O)c1ccc(Cl)cc1Cl)C(=O)O (stereo partly drawn) [Compound 16],IC50,"MenB [2]; IC50, 2-CoA-4-oxo-4-phenylbutanoic acids and analogues, Table 2",~100 nM and 100 nM
same,mode of MenB inhibition,MenB [3],noncompetitive (mixed)
CC(C)(COP(=O)(O)OP(=O)(O)OC[C@H]1O[C@@H](n2cnc3c(N)ncnc32)[C@H](O)[C@@H]1OP(=O)(O)O)[C@@H](O)C(=O)NCCC(=O)NCCSC(CC(=O)c1ccccc1Cl)C(=O)O (stereo partly drawn) [Compound 10],mode of MenB inhibition,MenB [3],noncompetitive (mixed)
CO[C@H]1/C=C/O[C@@]2(C)Oc3c(C)c(O)c4c(O)c(c(/C=N/N5CCN(C)CC5)c(O)c4c3C2=O)NC(=O)/C(C)=C\C=C\[C@H](C)[C@H](O)[C@@H](C)[C@@H](O)[C@@H](C)[C@H](OC(C)=O)[C@@H]1C [rifampicin],MIC,[4],0.4 µg/mL
CC(C(=O)c1ccc(Cl)cc1)C(N[C@@H](C)c1ccccc1)C(=O)O (stereo partly drawn) [Compound 7S],ability to inhibit MenB,MenB [2],retained the ability to inhibit MenB
CC(NC(CC(=O)c1ccc(F)cc1)C(=O)O)c1ccccc1 (stereo not drawn) [Compound 1548L21],concentration up to which MenE was not inhibited,MenE,> 300 µM
CC(C)(COP(=O)(O)OP(=O)(O)OC[C@H]1O[C@@H](n2cnc3c(N)ncnc32)[C@H](O)[C@@H]1OP(=O)(O)O)[C@@H](O)C(=O)NCCC(=O)NCCSC(CC(=O)c1ccc(Cl)cc1)C(=O)O (stereo partly drawn) [Compound 7],mode of MenB inhibition,MenB [3],noncompetitive (mixed)
O=C(O)/C=C/C(=O)c1ccc(Cl)cc1 [Compound 3a],change of IC50 for MenB inhibition with CoA concentration,MenB [2]; data not shown,decreased as the concentration of CoA increased
same,antibacterial activity,M. tuberculosis H37Rv [5],limited antibacterial activity
[2H]C([2H])(C(=O)c1ccccc1Cl)C(N[C@@H](C)c1ccccc1)C(=O)O (stereo partly drawn) [Compound 8S],ability to inhibit MenB,MenB [2],retained the ability to inhibit MenB
